Consider 16 compounds from US9382254B2, “Compounds and pharmaceutical compositions thereof for the treatment of cystic fibrosis” (Galapagos NV, priority 2013, dated 2016).

pEC50: −log10 of the molar value. Where two headings read alike, the source gives them in different places.

Holding throughout (format): cell-based
One test has as its target T1, CFTR-S549N (Homo sapiens, UniProt P13569, S549N).
T1 construct: expressed in transfected cells
Description: YFP-halide influx assay for the CFTR-S549N. From the text:
(§1) The YFP halide influx assay measures the functionality of the cystic fibrosis Transmembrane Conductance regulator (CFTR) channels. The assay is used to evaluate the capacity of compounds to increase the channel opening of existing mutant CFTR channels in the membrane. It makes use of the observation that the yellow fluorescent protein (YFP) variant YFP H148Q, I152L, […] has its fluorescence substantially quenched by halide ions like Cl^− and I^−. (Galietta, Haggie, & Verkman, 2001)
(§2) For this purpose, HEK293-cells are seeded in 96 well plates. During seeding, the cells are reverse-transfected with plasmid vectors that direct the expression of the CFTR G551D mutant and of the YFP reporter. Cells are incubated at 37° C., 5% CO2 for 24 hours so as to allow for sufficient expression of the CFTR protein.
(§3) The I^−-induced quenching of fluorescence is recorded immediately after injection of I^− for 7 seconds. The capacity of a compound to increase the channel opening is directly correlated with the decrease in fluorescence, and is expressed as (1-(fluorescence after 7 seconds (F)/fluorescence before injection (F0))) and an EC50 can be derived from a (1-F/F0) vs compound concentration plot.
(§4) Similar YHA assays were developed for other channel gating defective or channel conductance defective CFTR mutants to determine effect of compound on channel activity. Examples of mutants are G178R, G1349D, S549N, R117H, R334W. This assay is also used for additional class I CFTR mutants, including G542X, W1282X; class II mutants including N1303K, and for class III mutants including S1251N.

The target of a further test is T2, CFTR-G1349D (Homo sapiens, UniProt P13569, G1349D).
T2 construct: expressed in transfected cells
T2 sequence (P13569 whole entry G1349D): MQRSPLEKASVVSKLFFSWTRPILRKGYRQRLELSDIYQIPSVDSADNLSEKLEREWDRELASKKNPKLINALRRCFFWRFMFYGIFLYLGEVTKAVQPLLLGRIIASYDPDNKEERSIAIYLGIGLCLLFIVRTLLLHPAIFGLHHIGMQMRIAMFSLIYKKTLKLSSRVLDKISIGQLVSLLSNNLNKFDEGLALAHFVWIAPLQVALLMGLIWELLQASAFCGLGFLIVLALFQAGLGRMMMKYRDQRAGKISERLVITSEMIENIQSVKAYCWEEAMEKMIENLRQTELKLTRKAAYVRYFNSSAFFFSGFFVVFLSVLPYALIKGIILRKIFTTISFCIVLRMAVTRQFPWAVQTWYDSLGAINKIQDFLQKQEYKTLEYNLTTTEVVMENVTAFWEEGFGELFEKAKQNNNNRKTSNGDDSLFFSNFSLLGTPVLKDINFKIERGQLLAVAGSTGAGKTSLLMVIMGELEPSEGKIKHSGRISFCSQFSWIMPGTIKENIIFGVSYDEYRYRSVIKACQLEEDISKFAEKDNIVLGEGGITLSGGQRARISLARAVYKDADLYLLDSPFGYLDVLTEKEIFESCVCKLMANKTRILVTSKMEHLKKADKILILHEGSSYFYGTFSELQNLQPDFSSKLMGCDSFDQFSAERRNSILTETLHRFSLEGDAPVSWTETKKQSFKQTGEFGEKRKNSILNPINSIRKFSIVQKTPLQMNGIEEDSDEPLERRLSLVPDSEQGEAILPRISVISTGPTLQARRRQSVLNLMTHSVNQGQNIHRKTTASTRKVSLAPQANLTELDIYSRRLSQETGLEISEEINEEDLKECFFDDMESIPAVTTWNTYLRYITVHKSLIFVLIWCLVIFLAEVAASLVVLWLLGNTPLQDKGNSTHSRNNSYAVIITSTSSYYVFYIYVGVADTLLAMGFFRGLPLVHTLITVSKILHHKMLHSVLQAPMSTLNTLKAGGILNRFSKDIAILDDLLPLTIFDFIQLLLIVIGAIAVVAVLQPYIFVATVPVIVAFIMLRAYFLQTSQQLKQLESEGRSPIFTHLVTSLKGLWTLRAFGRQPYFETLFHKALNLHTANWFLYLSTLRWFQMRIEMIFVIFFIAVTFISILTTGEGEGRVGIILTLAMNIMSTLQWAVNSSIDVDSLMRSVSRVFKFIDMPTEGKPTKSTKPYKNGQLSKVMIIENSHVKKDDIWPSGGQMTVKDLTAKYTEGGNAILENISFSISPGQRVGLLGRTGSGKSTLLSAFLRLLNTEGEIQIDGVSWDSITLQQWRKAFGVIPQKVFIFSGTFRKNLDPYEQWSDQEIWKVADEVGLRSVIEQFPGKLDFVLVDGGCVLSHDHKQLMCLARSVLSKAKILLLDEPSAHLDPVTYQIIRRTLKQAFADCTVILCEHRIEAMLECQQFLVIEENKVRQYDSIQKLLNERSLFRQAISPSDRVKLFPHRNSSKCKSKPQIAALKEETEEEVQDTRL
Description: YFP-halide influx assay for the CFTR-G1349D.
Text: as §1, §2, §3, §4

In another test the target is T3, CFTR ΔF508 mutant (Homo sapiens, UniProt P13569, DEL508-508).
T3 construct: expressed in transfected cells; host or cells: CFBE41o- (adenoviral transduction)
T3 sequence (P13569 with tags, fused parts or gaps DEL508-508): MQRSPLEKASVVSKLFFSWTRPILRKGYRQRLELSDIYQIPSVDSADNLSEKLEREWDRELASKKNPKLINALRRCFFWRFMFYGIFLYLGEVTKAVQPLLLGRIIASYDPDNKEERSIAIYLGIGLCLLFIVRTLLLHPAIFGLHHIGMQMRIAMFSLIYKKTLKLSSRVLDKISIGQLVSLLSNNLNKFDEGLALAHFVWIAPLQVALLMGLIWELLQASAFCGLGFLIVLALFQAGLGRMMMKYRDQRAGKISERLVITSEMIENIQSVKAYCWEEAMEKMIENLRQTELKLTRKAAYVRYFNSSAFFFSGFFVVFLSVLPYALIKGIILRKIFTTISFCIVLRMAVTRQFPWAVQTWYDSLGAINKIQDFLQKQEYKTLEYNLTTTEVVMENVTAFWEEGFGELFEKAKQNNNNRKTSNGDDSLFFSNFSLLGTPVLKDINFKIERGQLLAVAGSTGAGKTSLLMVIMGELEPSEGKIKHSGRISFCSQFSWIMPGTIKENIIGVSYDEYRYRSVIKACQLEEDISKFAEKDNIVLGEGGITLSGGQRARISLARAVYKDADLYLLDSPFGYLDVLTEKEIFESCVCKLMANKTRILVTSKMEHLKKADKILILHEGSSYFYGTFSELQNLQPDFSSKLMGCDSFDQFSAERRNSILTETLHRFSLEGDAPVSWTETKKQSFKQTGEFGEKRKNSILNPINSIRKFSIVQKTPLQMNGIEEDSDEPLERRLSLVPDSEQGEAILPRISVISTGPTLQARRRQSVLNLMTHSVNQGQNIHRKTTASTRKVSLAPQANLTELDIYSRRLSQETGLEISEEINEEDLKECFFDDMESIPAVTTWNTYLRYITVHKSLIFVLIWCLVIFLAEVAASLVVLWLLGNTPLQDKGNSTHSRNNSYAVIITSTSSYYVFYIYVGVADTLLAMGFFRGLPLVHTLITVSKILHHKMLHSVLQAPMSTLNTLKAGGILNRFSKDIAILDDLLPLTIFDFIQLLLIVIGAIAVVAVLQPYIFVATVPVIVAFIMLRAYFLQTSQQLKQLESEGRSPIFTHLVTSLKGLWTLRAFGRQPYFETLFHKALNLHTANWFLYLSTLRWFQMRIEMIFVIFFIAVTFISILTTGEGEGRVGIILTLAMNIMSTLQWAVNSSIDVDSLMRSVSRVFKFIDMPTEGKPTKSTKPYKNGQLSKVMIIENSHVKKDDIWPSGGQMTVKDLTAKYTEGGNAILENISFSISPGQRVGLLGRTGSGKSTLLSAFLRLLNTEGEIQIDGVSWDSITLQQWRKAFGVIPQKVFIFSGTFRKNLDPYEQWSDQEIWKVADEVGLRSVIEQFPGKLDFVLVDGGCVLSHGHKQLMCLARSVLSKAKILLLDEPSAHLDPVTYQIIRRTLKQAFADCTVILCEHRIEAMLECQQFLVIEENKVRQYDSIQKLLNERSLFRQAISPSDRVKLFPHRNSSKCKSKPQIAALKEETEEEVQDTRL
Put plainly: YFP-halide influx assay for the CFTR-ΔF508 mutation (384 well, FDSS/μCell). The note with it: CFBE41o- cells, CFTR-ΔF508, 1×D-PBS, fluorescence after 36 seconds. The procedure, abridged:
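Potentiator read-out as 1−F/F0, F taken 36 s after iodide addition, EC50 fitted against compound concentration. Cells: CFBE41o- expressing ΔF508 CFTR plus halide-sensitive YFP via adenovirus, rescued by 27 °C for 24 h or 24 h modulator at 37 °C.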

For the next test, the target named is T4, CFTR-G178R (Homo sapiens, UniProt P13569, G178R).
T4 construct: expressed in transfected cells
T4 sequence (P13569 whole entry G178R): as the sequence (P13569 whole entry G1349D) above, with G178R, D1349G counted along it
Description: YFP-halide influx assay for the CFTR-G178R.
Text: as §1, §2, §3, §4

The target in a further test is T5, CFTR-R117H (Homo sapiens, UniProt P13569, R117H).
T5 construct: expressed in transfected cells
T5 sequence (P13569 whole entry R117H): as the sequence (P13569 whole entry G1349D) above, with R117H, D1349G counted along it
Put plainly: YFP-halide influx assay for the CFTR-R117H.
Text: as §1, §2, §3, §4

Another test deals with T6, CFTR G551D mutant (Homo sapiens, UniProt P13569, G551D).
T6 construct: expressed in transfected cells; host or cells: HEK293 (reverse transfection with plasmid)
T6 sequence (P13569 whole entry G551D): as the sequence (P13569 whole entry G1349D) above, with G551D, D1349G counted along it
Put plainly: YFP-halide influx assay for the CFTR-G551D mutation. The note with it: HEK293 cells, forskolin 10.67 μM. In a few lines: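 HEK293 cells reverse-transfected with CFTR G551D and YFP H148Q/I152L/F47L halide sensor, expressed 24 h at 37 °C. Iodide-induced fluorescence quench recorded 7 s after I− injection; response = 1−F/F0, with EC50 from plot against compound concentration.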

T1 sequence (P13569 whole entry S549N): as the sequence (P13569 whole entry G1349D) above, with S549N, D1349G counted along it

As a reminder, the pEC50 is the EC50 on a negative log10 scale, so that one unit is a factor of ten. For the compound `NC(=O)c1cc(S(=O)(=O)c2ccccc2OC(F)(F)F)sc1NC(=O)C1(CO)CC1` [Compound 320, 2-[(1-Hydroxymethyl-cyclopropanecarbonyl)-amino]-5-(2-trifluoromethoxy-benzenesulfonyl)-thiophene-3-carboxylic acid amide], the pEC50 is 6.88 on CFTR-S549N; 7.50 on CFTR-G1349D; 7.89 at CFTR ΔF508 mutant; 7.25 on CFTR-G178R; 7.06 at CFTR-R117H; 7.01 on CFTR G551D mutant.

As to `CC(C)(O)C(=O)Nc1sc(S(=O)(=O)c2cc(F)ccc2Br)cc1C(N)=O` [Compound 323, 5-(2-Bromo-5-fluoro-benzenesulfonyl)-2-(2-hydroxy-2-methyl-propionylamino)-thiophene-3-carboxylic acid amide], the negative logarithm of the EC50 (pEC50) on CFTR-S549N is 5.82; on CFTR-G1349D, 6.34; on CFTR ΔF508 mutant it was 8.03; on CFTR-G178R, 6.72; on CFTR-R117H, 6.47; at CFTR G551D mutant, 6.64.

Regarding `CC(O)C(=O)Nc1sc(S(=O)(=O)c2ccc(F)cc2C(F)(F)F)cc1C(N)=O` (centres unmarked) [Compound 325, 5-[4-fluoro-2-(trifluoromethyl)phenyl] sulfonyl-2-(2-hydroxypropanoylamino) thiophene-3-carboxamide], the pEC50 on CFTR-S549N is 5.67; at CFTR-G1349D, 5.59; at CFTR ΔF508 mutant, 7.95; on CFTR-G178R, 5.73; at CFTR-R117H it was 6.10; at CFTR G551D mutant it was 5.55.

On to `CC(O)C(=O)Nc1sc(S(=O)(=O)c2ccc(F)cc2Cl)cc1C(N)=O` (centres unmarked) [Compound 329, 5-(2-chloro-4-fluoro-phenyl) sulfonyl-2-(2-hydroxypropanoylamino) thiophene-3-carboxamide], for which the negative logarithm of the EC50 (pEC50) is 5.57 on CFTR-S549N; 5.69 on CFTR-G1349D; 7.63 at CFTR ΔF508 mutant; 5.77 at CFTR-G178R; 6.07 at CFTR-R117H; 5.85 on CFTR G551D mutant.

For `C[C@H](O)C(=O)Nc1sc(S(=O)(=O)c2ccc(OC(F)(F)F)cc2)cc1C(N)=O` [Compound 331, 2-[[(2S)-2-hydroxypropanoyl]amino]-5-[4-(trifluoromethoxy)phenyl] sulfonyl-thiophene-3-carboxamide], the negative-log EC50 (pEC50) was 6.28 at CFTR-S549N; 6.93 on CFTR-G1349D; 8.10 on CFTR ΔF508 mutant; 7.17 on CFTR-G178R; 7.02 at CFTR-R117H; 6.25 at CFTR G551D mutant.

In the case of `CC(O)C(=O)Nc1sc(S(=O)(=O)c2cc(F)ccc2Cl)cc1C(N)=O` (centres unmarked) [Compound 333, 5-(2-chloro-5-fluoro-phenyl)sulfonyl-2-(2-hydroxypropanoylamino) thiophene-3-carboxamide], the negative-log EC50 (pEC50) on CFTR-S549N is 6.26; at CFTR-G1349D, 6.07; on CFTR ΔF508 mutant it was 7.90; on CFTR-G178R it was 6.21; on CFTR-R117H, 6.33; on CFTR G551D mutant it was 6.12.

In the case of `CC(O)C(=O)Nc1sc(S(=O)(=O)c2cc(F)ccc2CC(F)(F)F)cc1C(N)=O` (centres unmarked) [Compound 334, 5-[5-fluoro-2-(2,2,2-trifluoroethyl)phenyl] sulfonyl-2-(2-hydroxypropanoylamino) thiophene-3-carboxamide], the pEC50 on CFTR-S549N was 6.47; at CFTR-G1349D it was 7.32; on CFTR ΔF508 mutant, 8.43; at CFTR-G178R, 7.35; at CFTR-R117H, 6.93; at CFTR G551D mutant, 6.82.

For the compound `CC(C)(O)C(=O)Nc1sc(S(=O)(=O)c2cc(F)ccc2Cl)cc1C(N)=O` [Compound 337, 5-(2-chloro-5-fluoro-phenyl)sulfonyl-2-[(2-hydroxy-2-methyl-propanoyl)amino] thiophene-3-carboxamide], the negative-log EC50 (pEC50) at CFTR-S549N was 6.97; on CFTR-G1349D, 7.31; at CFTR ΔF508 mutant, 8.26; at CFTR-G178R it was 7.57; at CFTR-R117H it was 7.25; on CFTR G551D mutant, 6.06.

Consider `CC(CO)C(=O)Nc1sc(S(=O)(=O)c2ccc(F)cc2Cl)cc1C(N)=O` (centres unmarked) [Compound 360, 5-(2-chloro-4-fluoro-phenyl)sulfonyl-2-[(3-hydroxy-2-methyl-propanoyl)amino] thiophene-3-carboxamide], for which the pEC50 was 6.73 on CFTR-S549N; 6.65 on CFTR-G1349D; 8.02 on CFTR ΔF508 mutant; 6.91 at CFTR-G178R; 7.31 at CFTR-R117H; 6.20 on CFTR G551D mutant.

For the compound `CC(C)(O)C(=O)Nc1sc(S(=O)(=O)c2ccc(C(F)(F)F)cn2)cc1C(N)=O` [Compound 363, 2-[(2-hydroxy-2-methyl-propanoyl)amino]-5-[[5-(trifluoromethyl)-2-pyridyl]sulfonyl]thiophene-3-carboxamide], the pEC50 was 6.66 on CFTR-S549N; 6.49 on CFTR-G1349D; 7.54 at CFTR ΔF508 mutant; 7.16 on CFTR-G178R; 7.04 on CFTR-R117H; 6.31 at CFTR G551D mutant.

On to `CC(O)C(=O)Nc1sc(S(=O)(=O)c2ccc(C(F)(F)F)cc2F)cc1C(N)=O` (centres unmarked) [Compound 368, 5-[2-fluoro-4-(trifluoromethyl)phenyl]sulfonyl-2-(2-hydroxypropanoylamino) thiophene-3-carboxamide], for which the pEC50 on CFTR-S549N is 7.26; on CFTR-G1349D, 7.00; at CFTR ΔF508 mutant it was 7.76; on CFTR-G178R it was 7.49; at CFTR-R117H, 7.47; on CFTR G551D mutant, 6.49.

Regarding `CC(CO)C(=O)Nc1sc(S(=O)(=O)c2ccc(C(F)(F)F)cc2)cc1C(N)=O` (centres unmarked) [Compound 369, 2-[(3-hydroxy-2-methyl-propanoyl)amino]-5-[4-(trifluoromethyl)phenyl] sulfonyl-thiophene-3-carboxamide], the pEC50 is 6.35 at CFTR-S549N; 6.71 at CFTR-G1349D; 7.93 on CFTR ΔF508 mutant; 7.13 on CFTR-G178R; 6.85 on CFTR-R117H; 6.16 on CFTR G551D mutant.

Consider `COc1ccc(OC(F)(F)F)c(S(=O)(=O)c2cc(C(N)=O)c(NC(=O)C(C)(C)O)s2)c1` [Compound 373, 2-[(2-hydroxy-2-methyl-propanoyl)amino]-5-[5-methoxy-2-(trifluoromethoxy)phenyl]sulfonyl-thiophene-3-carboxamide], for which the pEC50 on CFTR-S549N was 7.15; on CFTR-G1349D, 7.50; at CFTR ΔF508 mutant, 7.88; on CFTR-G178R it was 7.71; on CFTR-R117H it was 7.34; at CFTR G551D mutant, 7.00.

As to `CC(C)(O)C(=O)Nc1sc(S(=O)(=O)c2ccc(OC(F)(F)F)cn2)cc1C(N)=O` [Compound 374, 2-[(2-hydroxy-2-methyl-propanoyl)amino]-5-[[5-(trifluoromethoxy)-2-pyridyl]sulfonyl] thiophene-3-carboxamide], the pEC50 at CFTR-S549N is 5.74; on CFTR-G1349D, 6.09; on CFTR ΔF508 mutant, 7.23; on CFTR-G178R, 6.21; on CFTR-R117H, 6.44; at CFTR G551D mutant, 5.88.

Turning to `CC(C)(O)C(=O)Nc1sc(S(=O)(=O)c2ccc(OC(F)(F)F)cc2F)cc1C(N)=O` [Compound 375, 5-[2-fluoro-4-(trifluoromethoxy)phenyl] sulfonyl-2-[(2-hydroxy-2-methyl-propanoyl)amino] thiophene-3-carboxamide], the negative logarithm of the EC50 (pEC50) is 6.70 on CFTR-S549N; 6.84 on CFTR-G1349D; 8.12 at CFTR ΔF508 mutant; 7.03 at CFTR-G178R; 6.60 on CFTR-R117H; 6.17 on CFTR G551D mutant.

As to `Cc1c(S(=O)(=O)c2ccc(OC(F)(F)F)cc2)sc(NC(=O)C(C)(C)O)c1C(N)=O` [Compound 437, 2-[(2-hydroxy-2-methyl-propanoyl)amino]-4-methyl-5-[4-(trifluoromethoxy)phenyl]sulfonyl-thiophene-3-carboxamide], the pEC50 on CFTR-S549N was 6.92; on CFTR-G1349D (class symbol) it was less than 6.00; on CFTR ΔF508 mutant, 8.20; on CFTR-R117H, 6.58; on CFTR G551D mutant (class symbol) it was less than 6.00.
